The source of these data is ChEMBL document CHEMBL3870335, “Bioactivity of topologically confined gramicidin A dimers” (Bioorg Med Chem, 2017).

≈ marks a conversion by molar mass, not a printed value. Where a SMILES comes first, the peptide text is derived from it. [ ]: non-standard residue; d: D form. The star is where a group is joined. NHCH2CH2OH = OCCN*; For = O=C*

A short description of data set [1]: Induction of bulk conductivity in soybean asolectin planar lipid bilayers assessed as residual conductance of black lipid bilayer at 250 nM at pH 8.
A short description of data set [2]: Induction of bulk conductivity in soybean asolectin planar lipid bilayers assessed as residual conductance of black lipid bilayer at 500 nM at pH 8.
The next data set deals with Proteus mirabilis. Briefly: Antimicrobial activity against Proteus mirabilis ATCC 7002 after 16 to 20 hrs by broth microdilution method. It counts as functional.
Another data set has as its system Escherichia coli. Put plainly: Antimicrobial activity against Escherichia coli ATCC 25922 after 16 to 20 hrs by broth microdilution method. It counts as functional.
Another data set deals with Enterococcus faecium. Briefly: Antimicrobial activity against Enterococcus faecium DSMZ 20477 after 16 to 20 hrs by broth microdilution method. It counts as functional.
Data set [3] has as its system Plasmodium falciparum. Put plainly: Antimalarial activity against chloroquine-resistant Plasmodium falciparum Dd2 after 72 hrs by NBT based LDH assay. It is filed as functional. Particulars: Dd2, 72 h.
Data set [4] has as its system Staphylococcus epidermidis. Briefly: Antimicrobial activity against Staphylococcus epidermidis PP62A after 16 to 20 hrs by broth microdilution method. It is filed as functional.
In another data set the test system is Pseudomonas aeruginosa. Briefly: Antimicrobial activity against Pseudomonas aeruginosa ATCC 27853 after 16 to 20 hrs by broth microdilution method. It counts as functional.
In another data set the test system is Enterococcus faecalis. Briefly: Antimicrobial activity against Enterococcus faecalis ATCC 29212 after 16 to 20 hrs by broth microdilution method. It counts as functional.
The subject of a further data set is Streptococcus pneumoniae. Put plainly: Antimicrobial activity against Streptococcus pneumoniae serotype 19A after 16 to 20 hrs by broth microdilution method. It is filed as functional.
For data set [5], the system named is Plasmodium falciparum. Briefly: Antimalarial activity against chloroquine-sensitive Plasmodium falciparum 3D7 after 72 hrs by NBT based LDH assay. The settings on record: 3D7, 72 h. It counts as functional.
The subject of a further data set is Klebsiella pneumoniae. Put plainly: Antimicrobial activity against Klebsiella pneumoniae ATCC 13883 after 16 to 20 hrs by broth microdilution method. It is filed as functional.
The nature of data set [6]: Induction of bulk conductivity in soybean asolectin planar lipid bilayers assessed as residual conductance of black lipid bilayer at 0.5 nM at pH 8.
For another data set, the system named is Staphylococcus aureus. Briefly: Antimicrobial activity against methicillin-resistant Staphylococcus aureus ATCC 43300 after 16 to 20 hrs by broth microdilution method. It counts as functional.
Data set [7] is described as follows: Induction of bulk conductivity in soybean asolectin planar lipid bilayers assessed as residual conductance of black lipid bilayer at 1 nM at pH 8.
The nature of data set [8]: Hemolytic activity against human erythrocytes at 20 to 140 uM after 30 mins. It is filed as ADME, cell-based. Particulars: erythrocyte, 0.5 h.

For `CC(C)C[C@H]1NC(=O)[C@H](C)NC(=O)CNC(=O)[C@H](C(C)C)NC(=O)CCSSCCC(=O)N[C@@H](C(C)C)C(=O)NCC(=O)N[C@@H](C)C(=O)N[C@H](CC(C)C)C(=O)N[C@@H](C)C(=O)N[C@H](C(C)C)C(=O)N[C@@H](C(C)C)C(=O)N[C@H](C(C)C)C(=O)N[C@@H](Cc2c[nH]c3ccccc23)C(=O)N[C@H](CC(C)C)C(=O)N[C@@H](Cc2c[nH]c3ccccc23)C(=O)N[C@H](CC(C)C)C(=O)N[C@@H](Cc2c[nH]c3ccccc23)C(=O)N[C@H](CC(C)C)C(=O)N[C@@H](Cc2c[nH]c3ccccc23)C(=O)NCCSSCCNC(=O)[C@H](Cc2c[nH]c3ccccc23)NC(=O)[C@@H](CC(C)C)NC(=O)[C@H](Cc2c[nH]c3ccccc23)NC(=O)[C@@H](CC(C)C)NC(=O)[C@H](Cc2c[nH]c3ccccc23)NC(=O)[C@@H](CC(C)C)NC(=O)[C@H](Cc2c[nH]c3ccccc23)NC(=O)[C@@H](C(C)C)NC(=O)[C@H](C(C)C)NC(=O)[C@@H](C(C)C)NC(=O)[C@H](C)NC1=O`, the Activity in data set [1] is less than 0.3 uS.
On to `CC(=O)N[C@H](C(=O)NCC(=O)N[C@@H](C)C(=O)N[C@H](CC(C)C)C(=O)N[C@@H](C)C(=O)N[C@@H](C(=O)N[C@H](C(=O)N[C@@H](C(=O)N[C@@H](Cc1c[nH]c2ccccc12)C(=O)N[C@H](CC(C)C)C(=O)N[C@@H](Cc1c[nH]c2ccccc12)C(=O)N[C@H](CC(C)C)C(=O)N[C@@H](Cc1c[nH]c2ccccc12)C(=O)N[C@H](CC(C)C)C(=O)N[C@@H](Cc1c[nH]c2ccccc12)C(=O)NCCS)C(C)C)C(C)C)C(C)C)C(C)C`, for which the Activity in [2] worked out at 93 uS; in data set [6] it was 1.9 uS. The MIC (in the data set with Proteus mirabilis; against Escherichia coli; in the data set with Enterococcus faecium; in [4]; against Pseudomonas aeruginosa; in the data set with Enterococcus faecalis) was more than 64 µg/mL each time. For the same molecule, the MIC was 0.05 µg/mL (≈ 0.0261 µM) against Streptococcus pneumoniae, more than 64 µg/mL against Klebsiella pneumoniae and more than 64 µg/mL against Staphylococcus aureus. Also, the concentration for half-maximal inhibition (IC50) with Plasmodium falciparum [3] came out at 8 nM; with Plasmodium falciparum [5] it was 5.5 nM.
In the case of `CC(C)C[C@@H](NC(=O)[C@H](C)NC(=O)CNC(=O)[C@@H](NC(=O)CCS)C(C)C)C(=O)N[C@@H](C)C(=O)N[C@@H](C(=O)N[C@H](C(=O)N[C@@H](C(=O)N[C@@H](Cc1c[nH]c2ccccc12)C(=O)N[C@H](CC(C)C)C(=O)N[C@@H](Cc1c[nH]c2ccccc12)C(=O)N[C@H](CC(C)C)C(=O)N[C@@H](Cc1c[nH]c2ccccc12)C(=O)N[C@H](CC(C)C)C(=O)N[C@@H](Cc1c[nH]c2ccccc12)C(=O)NCCS)C(C)C)C(C)C)C(C)C`, the Activity was 0.3 uS in data set [2] and less than 0.3 uS in [7]. For the same molecule, the MIC (against Proteus mirabilis; against Escherichia coli; in the data set with Enterococcus faecium; in [4]; with Pseudomonas aeruginosa; in the data set with Enterococcus faecalis) was more than 64 µg/mL in each case. In addition, the MIC against Streptococcus pneumoniae, against Klebsiella pneumoniae and in the data set with Staphylococcus aureus was more than 64 µg/mL throughout.
For `CC(C)C[C@@H](NC(=O)[C@H](C)NC(=O)CNC(=O)[C@@H](NC(=O)CCSSc1ccc([N+](=O)[O-])c(C(=O)O)c1)C(C)C)C(=O)N[C@@H](C)C(=O)N[C@@H](C(=O)N[C@H](C(=O)N[C@@H](C(=O)N[C@@H](Cc1c[nH]c2ccccc12)C(=O)N[C@H](CC(C)C)C(=O)N[C@@H](Cc1c[nH]c2ccccc12)C(=O)N[C@H](CC(C)C)C(=O)N[C@@H](Cc1c[nH]c2ccccc12)C(=O)N[C@H](CC(C)C)C(=O)N[C@@H](Cc1c[nH]c2ccccc12)C(=O)NCCO)C(C)C)C(C)C)C(C)C`, the results for the Activity in data set [2] and in data set [7] were 115 uS and 0.2 uS, respectively. For the same molecule, the MIC in the data set with Proteus mirabilis was more than 64 µg/mL; with Escherichia coli, more than 64 µg/mL; with Enterococcus faecium, 0.5 µg/mL (≈ 0.234 µM); in [4], 1 µg/mL (≈ 0.467 µM); against Pseudomonas aeruginosa, more than 64 µg/mL; in the data set with Enterococcus faecalis, 1 µg/mL (≈ 0.467 µM). In addition, the MIC in the data set on Streptococcus pneumoniae, against Klebsiella pneumoniae and in the data set on Staphylococcus aureus was more than 64 µg/mL each time.
In turn, `CC(C)C[C@@H](NC(=O)[C@H](C)NC(=O)CNC(=O)[C@@H](NC(=O)CCSSCCC(=O)N[C@H](C(=O)NCC(=O)N[C@@H](C)C(=O)N[C@H](CC(C)C)C(=O)N[C@@H](C)C(=O)N[C@@H](C(=O)N[C@H](C(=O)N[C@@H](C(=O)N[C@@H](Cc1c[nH]c2ccccc12)C(=O)N[C@H](CC(C)C)C(=O)N[C@@H](Cc1c[nH]c2ccccc12)C(=O)N[C@H](CC(C)C)C(=O)N[C@@H](Cc1c[nH]c2ccccc12)C(=O)N[C@H](CC(C)C)C(=O)N[C@@H](Cc1c[nH]c2ccccc12)C(=O)NCCO)C(C)C)C(C)C)C(C)C)C(C)C)C(C)C)C(=O)N[C@@H](C)C(=O)N[C@@H](C(=O)N[C@H](C(=O)N[C@@H](C(=O)N[C@@H](Cc1c[nH]c2ccccc12)C(=O)N[C@H](CC(C)C)C(=O)N[C@@H](Cc1c[nH]c2ccccc12)C(=O)N[C@H](CC(C)C)C(=O)N[C@@H](Cc1c[nH]c2ccccc12)C(=O)N[C@H](CC(C)C)C(=O)N[C@@H](Cc1c[nH]c2ccccc12)C(=O)NCCO)C(C)C)C(C)C)C(C)C` yielded an MIC in the data set with Escherichia coli of more than 64 µg/mL. Besides, the Activity entry was “Non-Toxic” in [8], 66 uS in data set [1] and 0.4 uS in [6]. Besides, the half-inhibitory concentration (IC50) in the data set on Plasmodium falciparum [3] worked out at 26.5 nM; in the data set with Plasmodium falciparum [5], 31 nM.
With `CC(C)C[C@@H](NC(=O)[C@H](C)NC(=O)CNC(=O)[C@@H](NC=O)C(C)C)C(=O)N[C@@H](C)C(=O)N[C@@H](C(=O)N[C@H](C(=O)N[C@@H](C(=O)N[C@@H](Cc1c[nH]c2ccccc12)C(=O)N[C@H](CC(C)C)C(=O)N[C@@H](Cc1c[nH]c2ccccc12)C(=O)N[C@H](CC(C)C)C(=O)N[C@@H](Cc1c[nH]c2ccccc12)C(=O)N[C@H](CC(C)C)C(=O)N[C@@H](Cc1c[nH]c2ccccc12)C(=O)NCCO)C(C)C)C(C)C)C(C)C` (For-VGA[dL]A[dV]V[dV]W[dL]W[dL]W[dL]W-NHCH2CH2OH), the MIC against Proteus mirabilis is more than 64 µg/mL; in the data set on Escherichia coli, more than 64 µg/mL; in the data set with Enterococcus faecium, 2 µg/mL (≈ 1.06 µM); in data set [4], 0.5 µg/mL (≈ 0.266 µM); with Pseudomonas aeruginosa, more than 64 µg/mL; with Enterococcus faecalis it was 1 µg/mL (≈ 0.531 µM). The MIC against Streptococcus pneumoniae was 0.05 µg/mL (≈ 0.0266 µM); with Klebsiella pneumoniae it was more than 64 µg/mL; in the data set on Staphylococcus aureus, 64 µg/mL (≈ 34 µM). The Activity entry in [8] was “Toxic”; in [6], more than 50 uS. Also, the IC50 amounted to 0.014 nM in the data set on Plasmodium falciparum [3] and 0.05 nM in the data set on Plasmodium falciparum [5].
As to `CC(C)C[C@H]1NC(=O)[C@H](C)NC(=O)CNC(=O)[C@H](C(C)C)NC(=O)CCSSCCNC(=O)[C@H](Cc2c[nH]c3ccccc23)NC(=O)[C@@H](CC(C)C)NC(=O)[C@H](Cc2c[nH]c3ccccc23)NC(=O)[C@@H](CC(C)C)NC(=O)[C@H](Cc2c[nH]c3ccccc23)NC(=O)[C@@H](CC(C)C)NC(=O)[C@H](Cc2c[nH]c3ccccc23)NC(=O)[C@@H](C(C)C)NC(=O)[C@H](C(C)C)NC(=O)[C@@H](C(C)C)NC(=O)[C@H](C)NC(=O)[C@@H](CC(C)C)NC(=O)[C@H](C)NC(=O)CNC(=O)[C@H](C(C)C)NC(=O)CCSSCCNC(=O)[C@H](Cc2c[nH]c3ccccc23)NC(=O)[C@@H](CC(C)C)NC(=O)[C@H](Cc2c[nH]c3ccccc23)NC(=O)[C@@H](CC(C)C)NC(=O)[C@H](Cc2c[nH]c3ccccc23)NC(=O)[C@@H](CC(C)C)NC(=O)[C@H](Cc2c[nH]c3ccccc23)NC(=O)[C@@H](C(C)C)NC(=O)[C@H](C(C)C)NC(=O)[C@@H](C(C)C)NC(=O)[C@H](C)NC1=O`, the Activity in data set [2] was less than 0.3 uS. Also, the MIC (in the data set on Proteus mirabilis; with Escherichia coli; in the data set on Enterococcus faecium; in data set [4]; in the data set on Pseudomonas aeruginosa; with Enterococcus faecalis) was more than 64 µg/mL each time. The MIC against Streptococcus pneumoniae, with Klebsiella pneumoniae and with Staphylococcus aureus was more than 64 µg/mL each time. In addition, the figures for the IC50 in the data set on Plasmodium falciparum [3] and in the data set on Plasmodium falciparum [5] were 2.7 nM and 2.9 nM, respectively.
Take `CC[C@H]1OC(=O)[C@H](C)[C@@H](O[C@H]2C[C@@](C)(OC)[C@@H](O)[C@H](C)O2)[C@H](C)[C@@H](O[C@@H]2O[C@H](C)C[C@H](N(C)C)[C@H]2O)[C@](C)(O)C[C@@H](C)C(=O)[C@H](C)[C@@H](O)[C@]1(C)O` [ERYTHROMYCIN]: the minimum inhibitory concentration (MIC) is more than 64 µg/mL against Proteus mirabilis; more than 32 µg/mL against Escherichia coli; 2 to 4 µg/mL (≈ 2.73 to 5.45 µM) in the data set with Enterococcus faecium; more than 64 µg/mL in data set [4]; more than 64 µg/mL in the data set with Pseudomonas aeruginosa; 1 µg/mL (≈ 1.36 µM) against Enterococcus faecalis. Besides, the MIC with Streptococcus pneumoniae was more than 64 µg/mL; against Klebsiella pneumoniae, more than 64 µg/mL; against Staphylococcus aureus, 0.5 µg/mL (≈ 0.681 µM).
`CC(C)C[C@@H](NC(=O)[C@H](C)NC(=O)CNC(=O)[C@@H](NC(=O)CCS)C(C)C)C(=O)N[C@@H](C)C(=O)N[C@@H](C(=O)N[C@H](C(=O)N[C@@H](C(=O)N[C@@H](Cc1c[nH]c2ccccc12)C(=O)N[C@H](CC(C)C)C(=O)N[C@@H](Cc1c[nH]c2ccccc12)C(=O)N[C@H](CC(C)C)C(=O)N[C@@H](Cc1c[nH]c2ccccc12)C(=O)N[C@H](CC(C)C)C(=O)N[C@@H](Cc1c[nH]c2ccccc12)C(=O)NCCO)C(C)C)C(C)C)C(C)C`: the Activity in data set [2] amounted to 42 uS; in [7], 0.7 uS. In the data set on Escherichia coli, the MIC was more than 64 µg/mL.
